The target in the experiment is T1, NADPH oxidase (Rattus norvegicus, UniProt Q9WV87).
T1 construct: 12 500 208Fsrc3 cells (100 μl) received the stated concentrations of Cu SOD and 120 μM EUK-8; endogenous in cells; host or cells: 208Fsrc3 transformed rat fibroblasts
T1 sequence (Q9WV87 1-563): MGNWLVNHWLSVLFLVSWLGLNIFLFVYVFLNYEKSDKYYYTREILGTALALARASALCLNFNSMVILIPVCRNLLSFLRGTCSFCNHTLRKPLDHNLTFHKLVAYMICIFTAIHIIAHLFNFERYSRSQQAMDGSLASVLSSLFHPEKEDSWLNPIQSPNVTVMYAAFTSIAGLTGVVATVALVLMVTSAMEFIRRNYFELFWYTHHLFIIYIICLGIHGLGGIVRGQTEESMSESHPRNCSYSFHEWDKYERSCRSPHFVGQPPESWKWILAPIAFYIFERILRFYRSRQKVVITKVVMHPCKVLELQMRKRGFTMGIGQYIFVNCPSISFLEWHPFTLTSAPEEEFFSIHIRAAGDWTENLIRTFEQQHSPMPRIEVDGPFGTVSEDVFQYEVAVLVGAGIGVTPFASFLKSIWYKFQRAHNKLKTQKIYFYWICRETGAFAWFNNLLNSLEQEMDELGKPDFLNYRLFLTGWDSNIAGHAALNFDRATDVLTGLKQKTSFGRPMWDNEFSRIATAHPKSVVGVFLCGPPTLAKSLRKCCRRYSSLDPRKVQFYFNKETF
T1 sequence (Q62737 1-192 partner): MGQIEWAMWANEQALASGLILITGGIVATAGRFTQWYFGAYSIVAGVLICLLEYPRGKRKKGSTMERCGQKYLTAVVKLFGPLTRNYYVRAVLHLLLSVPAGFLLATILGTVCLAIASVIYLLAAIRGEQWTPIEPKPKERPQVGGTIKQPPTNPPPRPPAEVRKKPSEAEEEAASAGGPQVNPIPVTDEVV
Briefly: superoxide anion concentration after inhibition of NADPH oxidase (Cu SOD bell curve shift). The experiment is classed as cell-based. Particulars: 208Fsrc3, 120 μM EUK-8, 5 hours. The method, then: 12 500 208Fsrc3 cells (100 μl) received the stated concentrations of Cu SOD and 120 μM EUK-8. In addition the stated concentrations of the NADPH oxidase inhibitor AEBSF (4-(2-Aminoethyl)-benzenesulfonyl fluoride) were added. Control preparations remained free of AEBSF. After 5 hours the percentages of apoptotic cells were determined in duplicate preparations.

As for `NCCc1ccc(S(=O)(=O)F)cc1` [AEBSF, 4-(2-Aminoethyl)-benzenesulfonyl fluoride], the “reduction in superoxide anion concentration on doubling of the inhibitor concentration” value is on record as “fourfold”.

The values above are taken from US20160220542A1, “SYNERGISTIC ACTIVITY OF MODULATORS OF THE NO METABOLISM AND OF NADPH OXIDASE IN THE SENSITISATION OF TUMOR CELLS” (Universitaetsklinikum Freiburg, priority 2010, published 2016).
